Usually IC50 stands for the midpoint of a concentration-inhibition curve.

16 compounds from patent publication US20110182850A1, “ORGANIC COMPOUNDS AND THEIR USES” (priority 2009, published 2011) can be followed below.

T1 sequence (P26664 1658-1711): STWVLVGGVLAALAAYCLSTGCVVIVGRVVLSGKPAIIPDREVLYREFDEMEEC
T1 sequence (P26664 1027-1657): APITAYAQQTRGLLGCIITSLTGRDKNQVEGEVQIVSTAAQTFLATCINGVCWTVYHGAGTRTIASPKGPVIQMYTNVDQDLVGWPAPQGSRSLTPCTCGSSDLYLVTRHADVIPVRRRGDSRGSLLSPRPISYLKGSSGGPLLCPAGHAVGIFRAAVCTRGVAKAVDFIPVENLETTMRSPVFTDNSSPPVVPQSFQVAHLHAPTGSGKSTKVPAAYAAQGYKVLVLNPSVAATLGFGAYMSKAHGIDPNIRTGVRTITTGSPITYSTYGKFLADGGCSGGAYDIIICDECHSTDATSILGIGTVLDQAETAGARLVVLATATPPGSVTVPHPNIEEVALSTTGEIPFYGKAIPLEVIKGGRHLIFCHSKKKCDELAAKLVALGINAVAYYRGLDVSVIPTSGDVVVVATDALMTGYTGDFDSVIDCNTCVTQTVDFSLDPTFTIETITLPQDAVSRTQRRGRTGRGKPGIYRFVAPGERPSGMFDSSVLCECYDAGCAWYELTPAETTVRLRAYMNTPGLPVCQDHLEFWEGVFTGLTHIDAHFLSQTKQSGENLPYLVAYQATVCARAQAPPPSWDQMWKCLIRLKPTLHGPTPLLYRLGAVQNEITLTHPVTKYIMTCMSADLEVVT

One assay concerns the target T1, HCV NS3-4A serine protease (full-length NS3-4A protein, genotype 1a, strain HCV-1) (Hepatitis C virus genotype 1a, UniProt P26664).
T1 construct: using the full-length NS3-4A protein (genotype 1a, strain HCV-1)
The experiment in a line: HCV NS3-4A protease assay. In kind it is biochemical. The following applies: Protease IC50. As for the experimental part:
The inhibitory activity of certain compounds of Table A against HCV NS3-4A serine protease is determined in a homogenous assay using the full-length NS3-4A protein (genotype 1a, strain HCV-1) and a commercially available internally-quenched fluorogenic peptide substrate as described by Taliani, M., et al. 1996 Anal. Biochem. 240:60-67, which is incorporated by reference in its entirety.
With `CC(C)(C)[C@H](NC(=O)[C@@H](NC(=O)C1CCCCN1CCF)C1CCCCC1)C(=O)N1C[C@]2(C[C@H]1C(=O)N[C@]1(C(=O)NS(=O)(=O)C3CC3)CC=CCC1)C(C)(C)C21CCC1` (stereo partly drawn) [Compound 27, (5R,8S)-7-[(2S)-2-{[(2S)-2-cyclohexyl-2-({[1-(2-fluoroethyl)piperidin-2-yl]carbonyl}amino)acetyl]amino}-3,3-dimethylbutanoyl]-N-{(1S)-1-[(cyclopropylsulfonyl)carba-moyl]cyclohex-3-en-1-yl}-10,10-dimethyl-7-azadispiro[3.0.4.1]decane-8-carboxamide], it took 2850 nM to reach half-maximal inhibition (IC50). `CC(C)(C)[C@H](NC(=O)[C@@H](NC(=O)C(C)(C)N1CCCC1)C1CCCCC1)C(=O)N1C[C@]2(C[C@H]1C(=O)NC1(C(=O)NS(=O)(=O)C3CC3)CC1)C(C)(C)C21CCC1` [Compound 3, (5R,8S)-7-[(2S)-2-({(2S)-2-cyclohexyl-2-[(2-methyl-2-pyrrolidin-1-ylpropanoyl)amino]acetyl}amino)-3,3-dimethylbutanoyl]-N-{1-[(cyclopropylsulfonyl)carba-moyl]cyclopropyl}-10,10-dimethyl-7-azadispiro[3.0.4.1]decane-8-carboxamide]: the 50% inhibitory concentration (IC50) was 45 nM. `C=C[C@@H]1C[C@]1(NC(=O)[C@@H]1C[C@@]2(CN1C(=O)[C@@H](NC(=O)[C@@H](NC(=O)c1cc(C(C)(C)C)n[nH]1)C(C)(C)C)C(C)(C)C)C(C)(C)C21CCC1)C(=O)NS(=O)(=O)C1CC1` [Compound 138, (5R,8S)-7-[(2S)-2-{[(2S)-2-{[(3-tert-butyl-1H-pyrazol-5-yl)carbonyl]amino}-3,3-dimethylbutanoyl]amino}-3,3-dimethylbutanoyl]-N-{(1R,2S)-1-[(cyclopropylsulfonyl)carba-moyl]-2-vinylcyclopropyl}-10,10-dimethyl-7-azadispiro[3.0.4.1]decane-8-carboxamide]: half-maximal inhibition (IC50) required 5.5 nM. Regarding `C=C[C@@H]1C[C@]1(NC(=O)[C@@H]1C[C@@]2(CN1C(=O)[C@@H](NC(=O)[C@@H](NC(=O)[C@@H]1CCCN(CCF)C1)C(C)(C)C)C(C)(C)C)C(C)(C)C21CCC1)C(=O)NS(=O)(=O)C1CC1` [Compound 8, (5R,8S)-N-{(1R,2S)-1-[(cyclopropylsulfonyl)carba-moyl]-2-vinylcyclopropyl}-7-[(2S)-2-{[(2S)-2-({[(3R)-1-(2-fluoroethyl)piperidin-3-yl]carbonyl}amino)-3,3-dimethylbutanoyl]amino}-3,3-dimethylbutanoyl]-10,10-dimethyl-7-azadispiro[3.0.4.1]decane-8-carboxamide], the 50% inhibitory concentration (IC50) amounted to 25 nM. Compound `C=C[C@@H]1C[C@]1(NC(=O)[C@@H]1C[C@@]2(CN1C(=O)[C@@H](NC(=O)[C@@H](NC(=O)[C@@H]1CCCCN1C(C)C)C1CCCCC1)C(C)(C)C)C(C)(C)C21CCC1)C(=O)NS(=O)(=O)C1CCCC1` [Compound 80, (5R,8S)-7-[(2S)-2-{[(2S)-2-cyclohexyl-2-({[(2S)-1-isopropylpiperidin-2-yl]carbonyl}amino)acetyl]amino}-3,3-dimethylbutanoyl]-N-{(1R,2S)-1-[(cyclopentylsulfonyl)carbamoyl]-2-vinylcyclopropyl}-10,10-dimethyl-7-azadispiro[3.0.4.1]decane-8-carboxamide] came in with an IC50 of 10 nM. On the same count and under the same terms, the same measure for `C=C[C@@H]1C[C@]1(NC(=O)[C@@H]1C[C@@]2(CN1C(=O)[C@@H](NC(=O)[C@@H](NC(C)=O)C1CCCCC1)C(C)(C)C)C(C)(C)C21CCC1)C(=O)NS(=O)(=O)C1CC1` [Compound 99, (5R,8S)-7-[(2S)-2-{[(2S)-2-acetamido-2-cyclohexylacetyl]amino}-3,3-dimethylbutanoyl]-N-{(1R,2S)-1-[(cyclopropylsulfonyl)carba-moyl]-2-vinylcyclopropyl}-10,10-dimethyl-7-azadispiro[3.0.4.1]decane-8-carboxamide]: 6 nM; for `C=C[C@@H]1C[C@]1(NC(=O)[C@@H]1C[C@@]2(CN1C(=O)[C@@H](NC(=O)[C@@H](NC(=O)[C@@H]1CCCCN1C(C)C)C1CCCCC1)C(C)(C)C)C(C)(C)C21CCC1)C(=O)NS(=O)(=O)c1ccccc1` [Compound 61, (5R,8S)-7-[(2S)-2-{[(2S)-2-cyclohexyl-2-({[(2S)-1-isopropylpiperidin-2-yl]carbonyl}amino)acetyl]amino}-3,3-dimethylbutanoyl]-10,10-dimethyl-N-{(1R,2S)-1-[(phenylsulfonyl)carbamoyl]-2-vinylcyclopropyl}-7-azadispiro[3.0.4.1]decane-8-carboxamide]: 1.5 nM; for `C=C[C@@H]1C[C@]1(NC(=O)[C@@H]1C[C@@]2(CN1C(=O)[C@@H](NC(=O)[C@@H](NC(=O)c1ccccn1)C1CCCCC1)C(C)(C)C)C(C)(C)C21CCC1)C(=O)NS(=O)(=O)C1CC1` [Compound 97, (5R,8S)-7-[(2S)-2-({(2S)-2-cyclohexyl-2-[(pyridin-2-ylcarbonyl)amino]acetyl}amino)-3,3-dimethylbutanoyl]-N-{(1R,2S)-1-[(cyclopropylsulfonyl)carba-moyl]-2-vinylcyclopropyl}-10,10-dimethyl-7-azadispiro[3.0.4.1]decane-8-carboxamide]: 1 nM.

As to `C=C[C@@H]1C[C@]1(NC(=O)[C@@H]1C[C@@]2(CN1C(=O)[C@@H](NC(=O)[C@@H](NC(=O)c1[nH]c(C)c(C)c1C(C)=O)C1CCCCC1)C(C)(C)C)C(C)(C)C21CCC1)C(=O)NS(=O)(=O)C1CC1` [Compound 118, (5R,8S)-7-[(2S)-2-{[(2S)-2-{[(3-acetyl-4,5-dimethyl-1H-pyrrol-2-yl)carbonyl]amino}-2-cyclohexylacetyl]amino}-3,3-dimethylbutanoyl]-N-{(1R,2S)-1-[(cyclopropylsulfonyl)carba-moyl]-2-vinylcyclopropyl}-10,10-dimethyl-7-azadispiro[3.0.4.1]decane-8-carboxamide], inhibition was half-maximal at 1.4 nM (IC50). Take `C=C[C@@H]1C[C@]1(NC(=O)[C@@H]1C[C@@]2(CN1C(=O)[C@@H](NC(=O)C(NC(=O)c1ccccc1Nc1ccccc1)C1CCCCC1)C(C)(C)C)C(C)(C)C21CCC1)C(=O)NS(=O)(=O)C1CC1` (stereo partly drawn) [Compound 124, (5R,8S)-7-[(2S)-2-({[(2-anilinobenzoyl)amino](cyclo-hexyl)acetyl}amino)-3,3-dimethylbutanoyl]-N-{(1R,2S)-1-[(cyclopropylsulfonyl)carba-moyl]-2-vinylcyclopropyl}-10,10-dimethyl-7-azadispiro[3.0.4.1]decane-8-carboxamide]: half-maximal inhibition (IC50) was put at 30 nM. In turn, `C=C[C@@H]1C[C@]1(NC(=O)[C@@H]1C[C@@]2(CN1C(=O)[C@@H](NC(=O)[C@@H](NC(=O)[C@@H]1CCCCN1C(C)C)C1CCCCC1)C(C)(C)C)C(C)(C)C21CCC1)C(=O)NS(=O)(=O)C1(CC)CC1` [Compound 66, (5R,8S)-7-[(2S)-2-{[(2S)-2-cyclohexyl-2-({[(2S)-1-isopropylpiperidin-2-yl]carbonyl}amino)acetyl]amino}-3,3-dimethylbutanoyl]-N-[(1R,2S)-1-{[(1-ethylcyclopropyl)sulfonyl]carbamoyl}-2-vinylcyclopropyl]-10,10-dimethyl-7-azadispiro[3.0.4.1]decane-8-carboxamide] gave an IC50 of 1.8 nM. `C=C[C@@H]1C[C@]1(NC(=O)[C@@H]1C[C@@]2(CN1C(=O)[C@@H](NC(=O)[C@@H](NC(=O)OC(C)(C)C)C(C)(C)C)C(C)(C)C)C(C)(C)C21CCC1)C(=O)NS(=O)(=O)C1CC1` [Compound 6, tert-butyl [(1S)-1-{[(1S)-1-{[(5R,8S)-8-({(1R,2S)-1-[(cyclopropylsulfonyl)carba-moyl]-2-vinylcyclopropyl}carbamoyl)-10,10-dimethyl-7-azadispiro[3.0.4.1]dec-7-yl]carbonyl}-2,2-dimethylpropyl]carbamoyl}-2,2-dimethylpropyl]carbamate] gave a 50% inhibitory concentration (IC50) of 80 nM.

Staying with this assay, now noted: read-out: Protease IC50.
For the compound `C=C[C@@H]1C[C@]1(NC(=O)[C@@H]1C[C@@]2(CN1C(=O)[C@@H](NC(=O)[C@@H](NS(C)(=O)=O)C(C)(C)C)C(C)(C)C)C(C)(C)C21CCC1)C(=O)NS(=O)(=O)C1CC1` [Compound 47, (5R,8S)-N-{(1R,2S)-1-[(cyclopropylsulfonyl)carba-moyl]-2-vinylcyclopropyl}-7-[(2S)-2-({(2S)-3,3-dimethyl-2-[(methylsulfonyl)amino]butanoyl}amino)-3,3-dimethylbutanoyl]-10,10-dimethyl-7-azadispiro[3.0.4.1]decane-8-carboxamide], the IC50 was 65 nM. Take `C=C[C@@H]1C[C@]1(NC(=O)[C@@H]1C[C@@]2(CN1C(=O)[C@@H](NS(=O)(=O)c1nccn1C)C(C)(C)C)C(C)(C)C21CCC1)C(=O)NS(=O)(=O)C1CC1` [Compound 13, (5R,8S)-N-{(1R,2S)-1-[(cyclopropylsulfonyl)carba-moyl]-2-vinylcyclopropyl}-7-[(2S)-3,3-dimethyl-2-{[(1-methyl-1H-imidazol-2-yl)sulfonyl]amino}butanoyl]-10,10-dimethyl-7-azadispiro[3.0.4.1]decane-8-carboxamide]: the IC50 worked out at 250 nM. `C=C[C@@H]1C[C@]1(NC(=O)[C@@H]1C[C@@]2(CN1C(=O)[C@@H](NC(=O)CC1CCCCC1)C(C)(C)C)C(C)(C)C21CCC1)C(=O)NS(=O)(=O)C1CC1` [Compound 7, (5R,8S)-7-{(2S)-2-[(cyclohexylacetyl)amino]-3,3-dimethylbutanoyl}-N-{(1R,2S)-1-[(cyclopropylsulfonyl)carba-moyl]-2-vinylcyclopropyl}-10,10-dimethyl-7-azadispiro[3.0.4.1]decane-8-carboxamide]: the 50% inhibitory concentration (IC50) stood at 100 nM.

As for `C=C[C@@H]1C[C@]1(NC(=O)[C@@H]1C[C@@]2(CN1C(=O)[C@@H](NC(=O)OC(C)(C)C)C(C)C)C(C)(C)C21CCC1)C(=O)NS(=O)(=O)C1CC1` [Compound 1, tert-butyl [(1S)-1-{[(5R,8S)-8-({(1R,2S)-1-[(cyclopropylsulfonyl)carba-moyl]-2-vinylcyclopropyl}carbamoyl)-10,10-dimethyl-7-azadispiro[3.0.4.1]dec-7-yl]carbonyl}-2-methylpropyl]carbamate], the IC50 turned out to be 100 nM.
